Key:
Assay type in all cases: functional
L3.6pl = assay: Antiproliferative activity against human L3.6 cells assessed as inhibition of cell viability at 10 uM after 48 hrs by MTT assay relative to control
HCT-116 = assay: Antiproliferative activity against human HCT116 cells assessed as inhibition of cell viability at 10 uM after 48 hrs by MTT assay relative to control
MDA-MB-231 = assay: Antiproliferative activity against human MDA-MB-231 cells assessed as inhibition of cell viability at 10 uM after 48 hrs by MTT assay relative to control
SW480 = assay: Antiproliferative activity against human SW480 cells assessed as inhibition of cell viability at 10 uM after 48 hrs by MTT assay relative to control

Row | SMILES | inhibition at 10 µM (L3.6pl) [%] | inhibition at 10 µM (HCT-116) [%] | inhibition at 10 µM (MDA-MB-231) [%] | inhibition at 10 µM (SW480) [%]
1 | COc1ccc(NC(=O)c2ccc(Cl)c(S(N)(=O)=O)c2)cc1 | 22.8 | 20.2 | 30.9 | 31.9
2 | NS(=O)(=O)c1cc(C(=O)Nc2c(F)c(F)c(F)c(F)c2F)ccc1Cl | 12.6 | 34 | 33.1 | 27.1
3 | NS(=O)(=O)c1cc(C(=O)Nc2ccc(F)c(Cl)c2)ccc1Cl | 30.2 | 47.5 | 41.5 | 49.1
4 | COc1cc(NC(=O)c2ccc(Cl)c(S(N)(=O)=O)c2)cc(OC)c1OC | 42.1 | 87.9 | 93.3 | 82.2
5 | NS(=O)(=O)c1cccc(C(=O)Nc2ccc(C(F)(F)F)cc2)c1 | 18.1 | 19.1 | 26.4 | 38.1
6 | COc1cc(CNC(=O)c2ccc(Cl)c(S(N)(=O)=O)c2)cc(OC)c1OC | 38.2 | 34.3 | 44.4 | 27.4
7 | CCC(=O)NS(=O)(=O)c1cc(C(=O)Nc2cc(OC)c(OC)c(OC)c2)ccc1Cl | 1.47 | 27.2 | 19.6 | 21.3
8 | COc1ccccc1C(=O)NS(=O)(=O)c1cc(C(=O)Nc2cc(OC)c(OC)c(OC)c2)ccc1Cl | -18.3 | 16.2 | 13.1 | 33.9
9 | NS(=O)(=O)c1cccc(C(=O)Nc2ccccc2C(F)(F)F)c1 | 21.9 | 40.3 | 42.8 | 24.8
10 | NS(=O)(=O)c1cc(C(=O)Nc2ccc(Cl)c(F)c2)ccc1Cl | 26.4 | 44.1 | 43.7 | 48.1
11 | COc1cc(NC(=O)c2ccc(Cl)c(S(=O)(=O)NC(=O)c3cccc([N+](=O)[O-])c3)c2)cc(OC)c1OC | -6.13 | 3.74 | 14.3 | 12.1
12 | NS(=O)(=O)c1cccc(C(=O)Nc2cccc(C(F)(F)F)c2)c1 | 9.27 | 39.7 | 27.2 | 34.4
13 | COc1cc(NC(=O)c2ccc(Cl)c(S(=O)(=O)NC(=O)C=C(C)C)c2)cc(OC)c1OC | -7.12 | 20.1 | 22.3 | 22.6
14 | COc1cc(OC)cc(C(=O)NS(=O)(=O)c2cc(C(=O)Nc3cc(OC)c(OC)c(OC)c3)ccc2Cl)c1 | -13.1 | -2.37 | 4.11 | 16.1
15 | COc1cc(NC(=O)c2ccc(Cl)c(S(N)(=O)=O)c2)c(C(=O)O)cc1OC | 11.8 | 47.2 | 66.7 | 30.2
16 | COc1cccc(NC(=O)c2ccc(Cl)c(S(N)(=O)=O)c2)c1 | 22.3 | 43 | 42.4 | 29.3
17 | COc1ccc(OC)c(NC(=O)c2ccc(Cl)c(S(N)(=O)=O)c2)c1 | 24.2 | 28.2 | 26.7 | 23.2
18 | COc1cc(NC(=O)c2ccc(Cl)c(S(=O)(=O)NC(=O)c3ccc(Cl)nc3)c2)cc(OC)c1OC | -15.7 | -9.17 | 5.01 | 8.11
19 | C/C=C/C(=O)NS(=O)(=O)c1cc(C(=O)Nc2cc(OC)c(OC)c(OC)c2)ccc1Cl | 11.7 | 29.3 | 18.4 | 24.6

Row | SMILES | inhibition at 10 µM (L3.6pl) [%] | inhibition at 10 µM (HCT-116) [%] | inhibition at 10 µM (MDA-MB-231) [%] | inhibition at 10 µM (SW480) [%]
20 | COc1cc(NC(=O)c2cccc(S(N)(=O)=O)c2)cc(OC)c1 | 22.2 | 47.1 | 39.6 | 40.4
21 | COc1ccccc1NC(=O)c1ccc(Cl)c(S(N)(=O)=O)c1 | 22.9 | 37.3 | 19.8 | 49.3
22 | COc1ccccc1NC(=O)c1cccc(S(N)(=O)=O)c1 | 9.7 | 40.3 | 27.1 | 18.2
23 | COc1cc(NC(=O)c2ccc(Cl)c(S(=O)(=O)NC(C)=O)c2)cc(OC)c1OC | -15.2 | 27.2 | 19.4 | 19.5
24 | NC(N)=NS(=O)(=O)c1ccc(NC(=O)c2ccc(Cl)c(S(N)(=O)=O)c2)cc1 | 11.1 | 41.3 | 46.4 | 27.3
25 | COc1ccc(OC)c(NC(=O)c2cccc(S(N)(=O)=O)c2)c1 | 20.5 | 46.4 | 37 | 31.9
26 | NS(=O)(=O)c1cc(C(=O)Nc2cccc(C(F)(F)F)c2)ccc1Cl | 22.3 | 41.4 | 29 | 42.9
27 | COc1cc(NC(=O)c2ccc(Cl)c(S(N)(=O)=O)c2)cc(OC)c1 | 26.3 | 42.5 | 31.8 | 27.2
28 | NS(=O)(=O)c1cccc(C(=O)Nc2cccnc2)c1 | 32.7 | 8.11 | 42.9 | 28.3
29 | COc1ccc(C(=O)NS(=O)(=O)c2cc(C(=O)Nc3cc(OC)c(OC)c(OC)c3)ccc2Cl)cc1 | 18.3 | 4.8 | 13.1 | 20.1
30 | COc1cccc(C(=O)NS(=O)(=O)c2cc(C(=O)Nc3cc(OC)c(OC)c(OC)c3)ccc2Cl)c1 | -0.51 | 21.3 | 23.5 | 22
31 | COc1ccc(NC(=O)c2cccc(S(N)(=O)=O)c2)cc1 | 23.9 | 42.7 | 32.3 | 38.4
32 | NS(=O)(=O)c1cccc(C(=O)Nc2ccc([N+](=O)[O-])cc2Cl)c1 | 21.3 | 15.1 | 43.2 | 44.1
33 | NS(=O)(=O)c1ccc(O)c(C(=O)Nc2ccc([N+](=O)[O-])cc2Cl)c1 | 44.7 | 64 | 48.2 | -8.3
34 | NS(=O)(=O)c1cc(C(=O)Nc2ccccc2C(F)(F)F)ccc1Cl | 21.2 | 45.4 | 44.9 | 30.7
35 | C=CC(=O)NS(=O)(=O)c1cc(C(=O)Nc2cc(OC)c(OC)c(OC)c2)ccc1Cl | -12.9 | 24.2 | 2.82 | 28.9
36 | CN1CCN(c2ccc(NC(=O)c3ccc(Cl)c(S(N)(=O)=O)c3)cc2)CC1 | 14.6 | 40.5 | 37.3 | 38.3
37 | NS(=O)(=O)c1cc(C(=O)Nc2ccc(N3CCOCC3)cc2)ccc1Cl | 12.2 | 39.3 | 43.3 | 21.9

— ChEMBL document CHEMBL4811240, “Discovery of N-substituted sulfamoylbenzamide derivatives as novel inhibitors of STAT3 signaling pathway based on Niclosamide” (Eur J Med Chem, 2021)
